Tested on: human Notch 1
Experiment: Notch-CBF1 Transactivation Assay (Notch 1)
Type: cell-based
Conditions: HeLa cells co-transfected with truncated Notch 1 and CBF1 luciferase reporter; 18 hours incubation
Text: (§1) Notch-CBF1 Transactivation Assay
(§2) Table 12 denotes respective DNA quantity for the transfections.
(§3) Duplicates were used for each sample.

Row | IC50 | SMILES
1 | 17.4 nM | NC(=O)[C@@H](CCC(F)(F)F)[C@@H](CCC(F)(F)F)C(=O)N[C@H]1CN(c2ccc(Cl)cc2)c2ccccc2NC1=O [Example 4, (2R,3S)—N-((3S)-1-(4-Chlorophenyl)-4-oxo-2,3,4,5-tetrahydro-1H-1,5-benzodiazepin-3-yl)-2,3-bis(3,3,3-trifluoropropyl)succinamide]
2 | 13.9 nM | NC(=O)[C@@H](CCC(F)(F)F)[C@@H](CCC(F)(F)F)C(=O)N[C@H]1CN(c2ccc(F)cc2)c2ccccc2NC1=O [Example 6, (2R,3S)—N-((3S)-1-(4-Fluorophenyl)-4-oxo-2,3,4,5-tetrahydro-1H-1,5-benzodiazepin-3-yl)-2,3-bis(3,3,3-trifluoropropyl)succinamide]
3 | 12 nM | N#Cc1cccc(N2C[C@H](NC(=O)[C@H](CCC(F)(F)F)[C@H](CCC(F)(F)F)C(N)=O)C(=O)Nc3c(C(F)F)cccc32)c1 [Example 10, (2R,3S)—N-((3S)-1-(3-Cyanophenyl)-6-(difluoromethyl)-4-oxo-2,3,4,5-tetrahydro-1H-1,5-benzodiazepin-3-yl)-2,3-bis(3,3,3-trifluoropropyl)succinamide]
4 | 17.6 nM | N#Cc1cccc(N2C[C@H](NC(=O)[C@H](CCC(F)(F)F)[C@H](CCC(F)(F)F)C(N)=O)C(=O)Nc3c(F)cccc32)c1 [Example 17, (2R,3S)—N-((3S)-1-(3-Cyanophenyl)-6-fluoro-4-oxo-2,3,4,5-tetrahydro-1H-1,5-benzodiazepin-3-yl)-2,3-bis(3,3,3-trifluoropropyl)succinamide]
5 | 11.6 nM | N#Cc1cccc(N2C[C@H](NC(=O)[C@H](CCC(F)(F)F)[C@H](CCC(F)(F)F)C(N)=O)C(=O)Nc3c(Cl)cccc32)c1 [Example 23, (2R,3S)—N-((3S)-6-Chloro-1-(3-cyanophenyl)-4-oxo-2,3,4,5-tetrahydro-1H-1,5-benzodiazepin-3-yl)-2,3-bis(3,3,3-trifluoropropyl)succinamide]
6 | 14.6 nM | N#Cc1cccc(N2C[C@H](NC(=O)[C@H](CCC(F)(F)F)[C@H](CC3CC3)C(N)=O)C(=O)Nc3c(Cl)cccc32)c1 [Example 25, (2R,3S)—N-((3S)-6-Chloro-1-(3-cyanophenyl)-4-oxo-2,3,4,5-tetrahydro-1H-1,5-benzodiazepin-3-yl)-3-(cyclopropylmethyl)-2-(3,3,3-trifluoropropyl)succinamide]
7 | 22.5 nM | N#Cc1ccccc1N1C[C@H](NC(=O)[C@H](CCC(F)(F)F)[C@H](CC2CC2)C(N)=O)C(=O)Nc2c(Cl)cccc21 [Example 26, (2R,3S)—N-((3S)-6-Chloro-1-(2-cyanophenyl)-4-oxo-2,3,4,5-tetrahydro-1H-1,5-benzodiazepin-3-yl)-3-(cyclopropylmethyl)-2-(3,3,3-trifluoropropyl)succinamide]

Tested on: not listed separately
Experiment: Human metabolic stability half-life assay
Type: in vitro ADME
Conditions: liver microsomes, pH 7.4, human liver microsomes, 0.5 μM compound, NADPH, 45-minute time course, read-out: HLM t1/2
Text: Metabolic Stability Half-Life Panel

Row | half-life at 0.5 μM | SMILES
8 | ≥ 31 min | NC(=O)[C@@H](CCC(F)(F)F)[C@@H](CCC(F)(F)F)C(=O)N[C@H]1CN(c2cccc(C3CC3)c2)c2cccc(Cl)c2NC1=O [Example 1, (2R,3S)—N-((3S)-6-Chloro-1-(3-cyclopropylphenyl)-4-oxo-2,3,4,5-tetrahydro-1H-1,5-benzodiazepin-3-yl)-2,3-bis(3,3,3-trifluoropropyl)succinamide]
9 | ≥ 31 min | NC(=O)[C@@H](CCC(F)(F)F)[C@@H](CCC(F)(F)F)C(=O)N[C@H]1CN(c2cccc(Cl)c2)c2ccccc2NC1=O [Example 3, (2R,3S)—N-((3S)-1-(3-Chlorophenyl)-4-oxo-2,3,4,5-tetrahydro-1H-1,5-benzodiazepin-3-yl)-2,3-bis(3,3,3-trifluoropropyl)succinamide]
10 | ≥ 31 min | NC(=O)[C@@H](CCC(F)(F)F)[C@@H](CCC(F)(F)F)C(=O)N[C@H]1CN(c2cccc(C3CC3)c2)c2ccccc2NC1=O [Example 5, (2R,3S)—N-((3S)-1-(3-Cyclopropylphenyl)-4-oxo-2,3,4,5-tetrahydro-1H-1,5-benzodiazepin-3-yl)-2,3-bis(3,3,3-trifluoropropyl)succinamide]
11 | ≥ 31 min | NC(=O)[C@@H](CCC(F)(F)F)[C@@H](CCC(F)(F)F)C(=O)N[C@H]1CN(c2cccc(Cl)c2)c2cccc(C3CC3)c2NC1=O [Example 7, (2R,3S)—N-((3S)-1-(3-Chlorophenyl)-6-cyclopropyl-4-oxo-2,3,4,5-tetrahydro-1H-1,5-benzodiazepin-3-yl)-2,3-bis(3,3,3-trifluoropropyl)succinamide]
12 | ≥ 31 min | NC(=O)[C@@H](CC1CC1)[C@@H](CCC(F)(F)F)C(=O)N[C@H]1CN(c2cccc(C3CC3)c2)c2cccc(F)c2NC1=O [Example 15, (2R,3S)-3-(Cyclopropylmethyl)-N-((3S)-1-(3-cyclopropylphenyl)-6-fluoro-4-oxo-2,3,4,5-tetrahydro-1H-1,5-benzodiazepin-3-yl)-2-(3,3,3-trifluoropropyl)succinamide]
13 | ≥ 31 min | N#Cc1cccc(N2C[C@H](NC(=O)[C@H](CCC(F)(F)F)[C@H](CC3CC3)C(N)=O)C(=O)Nc3c(Cl)cccc32)c1 [Example 25, (2R,3S)—N-((3S)-6-Chloro-1-(3-cyanophenyl)-4-oxo-2,3,4,5-tetrahydro-1H-1,5-benzodiazepin-3-yl)-3-(cyclopropylmethyl)-2-(3,3,3-trifluoropropyl)succinamide]
14 | ≥ 31 min | N#Cc1ccccc1N1C[C@H](NC(=O)[C@H](CCC(F)(F)F)[C@H](CC2CC2)C(N)=O)C(=O)Nc2c(Cl)cccc21 [Example 26, (2R,3S)—N-((3S)-6-Chloro-1-(2-cyanophenyl)-4-oxo-2,3,4,5-tetrahydro-1H-1,5-benzodiazepin-3-yl)-3-(cyclopropylmethyl)-2-(3,3,3-trifluoropropyl)succinamide]
15 | ≥ 31 min | N#Cc1cc(F)cc(N2C[C@H](NC(=O)[C@H](CCC(F)(F)F)[C@H](CC3CC3)C(N)=O)C(=O)Nc3c(Cl)cccc32)c1 [Example 28, (2R,3S)—N-((3S)-6-Chloro-1-(3-cyano-5-fluorophenyl)-4-oxo-2,3,4,5-tetrahydro-1H-1,5-benzodiazepin-3-yl)-3-(cyclopropylmethyl)-2-(3,3,3-trifluoropropyl)succinamide]
16 | ≥ 31 min | NC(=O)[C@@H](CC1CC1)[C@@H](CCC(F)(F)F)C(=O)N[C@H]1CN(c2cccc(C3CC3)c2)c2cccc(Cl)c2NC1=O [Example 29, (2R,3S)—N-((3S)-6-Chloro-1-(3-cyclopropylphenyl)-4-oxo-2,3,4,5-tetrahydro-1H-1,5-benzodiazepin-3-yl)-3-(cyclopropylmethyl)-2-(3,3,3-trifluoropropyl)succinamide]
17 | ≥ 31 min | NC(=O)[C@@H](CCC(F)(F)F)[C@@H](CCC(F)(F)F)C(=O)N[C@H]1CN(c2cccc(Cl)c2)c2cccc(Cl)c2NC1=O [Example 31, (2R,3S)—N-((3S)-6-Chloro-1-(3-chlorophenyl)-4-oxo-2,3,4,5-tetrahydro-1H-1,5-benzodiazepin-3-yl)-2,3-bis(3,3,3-trifluoropropyl)succinamide]
18 | ≥ 31 min | NC(=O)[C@@H](CCC(F)(F)F)[C@@H](CCC(F)(F)F)C(=O)N[C@H]1CN(c2ccccn2)c2cccc(Cl)c2NC1=O [Example 33, (2R,3S)—N-((3S)-6-Chloro-4-oxo-1-(2-pyridinyl)-2,3,4,5-tetrahydro-1H-1,5-benzodiazepin-3-yl)-2,3-bis(3,3,3-trifluoropropyl)succinamide]
19 | ≥ 31 min | NC(=O)[C@@H](c1ccccc1)[C@@H](CCC(F)(F)F)C(=O)N[C@H]1CN(c2cccc(C(F)(F)F)n2)c2cccc(Cl)c2NC1=O [Example 34, (2R,3R)—N-((3S)-6-Chloro-4-oxo-1-(6-(trifluoromethyl)-2-pyridinyl)-2,3,4,5-tetrahydro-1H-1,5-benzodiazepin-3-yl)-3-phenyl-2-(3,3,3-trifluoropropyl)succinamide]
20 | ≥ 31 min | NC(=O)[C@@H](CCC(F)(F)F)[C@@H](CCC(F)(F)F)C(=O)N[C@H]1CN(c2ccccc2)c2ccc(F)cc2NC1=O [Example 37, (2R,3S)—N-((3S)-7-Fluoro-4-oxo-1-phenyl-2,3,4,5-tetrahydro-1H-1,5-benzodiazepin-3-yl)-2,3-bis(3,3,3-trifluoropropyl)succinamide]

Tested on: human Notch 3
Experiment: Notch-CBF1 Transactivation Assay (Notch 3)
Type: cell-based
Conditions: HeLa cells co-transfected with truncated Notch 3 and CBF1 luciferase reporter; 18 hours incubation
Text: as §1, §2, §3

Row | IC50 | SMILES
21 | 46.2 nM | N#Cc1ccccc1N1C[C@H](NC(=O)[C@H](CCC(F)(F)F)[C@H](CC2CC2)C(N)=O)C(=O)Nc2c(Cl)cccc21 [Example 26, (2R,3S)—N-((3S)-6-Chloro-1-(2-cyanophenyl)-4-oxo-2,3,4,5-tetrahydro-1H-1,5-benzodiazepin-3-yl)-3-(cyclopropylmethyl)-2-(3,3,3-trifluoropropyl)succinamide]

Source: US9187434B2, “Substituted 1,5-benzodiazepinones compounds” (BRISTOL-MYERS SQUIBB COMPANY, priority 2012, dated 2015)
